According to patent publication US20120022121A1, “INDOLES, DERIVATIVES AND ANALOGS THEREOF AND USES THEREFOR” (priority 2007, published 2012):

How the values were obtained:
[1] = tested on: T1, tubulin; assay: In vitro tubulin polymerization assay; format: biochemical, bovine; details: cell free, turbidity 340 nm, 40 min; read-out: IC50 of microtubule formation (tubulin polymerization)
T1 construct: IC50 of microtubule formation (tubulin polymerization); other: cell free, turbidity 340 nm, 40 min
Description: Tubulin polymerization kits (Cytoskeleton, Denver, Colo.) were used to study tubulin depolymerization. The reaction contained 50 μL of 4 mg/mL tubulin in PEM buffer (80 mM PIPES, pH 7.0, 0.5 mM EGTA, 2 mM MgCl2, 1 mM GTP, 10% glycerol). The procedure was done according to the manufacturer's protocol. Tubulin polymerization was monitored in a UV spectrophotometer for 40 minutes at 340 nm at 37° C.

[2] = tested on: HEK293-MRP1; assay: Growth inhibition assay (96 h); format: cell-based, human; details: HEK293-MRP1 vs HEK293-pcDNA3.1
[3] = tested on: MRP1 (over-expressed in the cells); assay: Growth inhibition assay (96 h); format: cell-based, human; details: human, HEK293 cells over-expressing MRP1 (HEK293-MRP1); HEK293-MRP1, MRP1 over-expressed, 96 h
[4] = tested on: MCF-7; assay: Growth inhibition assay (SRB, 96 h); format: cell-based; details: Homo sapiens, MCF7; MCF-7, 96 h
Source text: (§1) MTT (3-(4,5-dimethylthiazol-2-yl)-2,5-diphenyltetrazolium bromide) assay was also used for the leukemia cell lines. […] Cells were stained with SRB solution or MTT solution.

[5] = tested on: HT-29; assay: Growth inhibition assay (SRB, 96 h); format: cell-based; details: Homo sapiens, HT-29, 96 h
Source text: as §1

[6] = tested on: TSU-Pr1; assay: Growth inhibition assay (SRB, 96 h); format: cell-based; details: Homo sapiens, TSU-Pr1, 96 h
Source text: as §1

[7] = tested on: MES-SA xenografts; assay: In vivo antitumor efficacy, MES-SA xenograft; design: species or system mice; details: q2d, i.p.
Description: (§2) The control group was treated with vehicle (10% DMSO in PEG300).

[8] = tested on: MES-SA/DX5 xenografts; assay: In vivo antitumor efficacy, MES-SA/DX5 xenograft; details: for TGI (tumor growth inhibition): MES-SA/DX5 xenograft, q2d, i.p.
Description: as §2

[9] = tested on: solid tumor cell lines; assay: Growth inhibition, range over the cell lines of Table 2; format: cell-based; details: Homo sapiens, read-out: IC50 values, range over the cell lines tested
Description: Cell viability (LNCaP, PC-3 prostate, DU145, PPC-1, and TSU-Pr1 prostate cancer cell lines, HT-29 colon cancer cell line, and MCF-7 breast cancer cell line) was quantitated using the sulforhodamine B (SRB) assay after 96 h coincubation with different concentrations of compound in 96-well plates. Cell viability of leukemia cells (K562 and doxorubicin-resistant K562/Dox) was quantitated by MTT assay after 96 h coincubation with different concentrations of compound in 96-well plates. Drug-induced apoptosis was determined by anti-histone ELISA assay and DNA laddering. Cell cycle progression was assessed by propidium iodide staining and fluorescence-activated cell sorting (FACS) analysis. In vitro tubulin polymerization assay was determined by CytoDYNAMIX ScreenTM3 (CDS-03) kits according to the manufacturer's instructions. Anti-apoptosis protein (Bcl-2 and Bcl-xl) and pro-apoptosis protein (Bax) were examined in LNCaP and PC-3 after 24 h incubation with different concentrations of compound 13 by Western blot assay. In vivo PC-3 xenograft studies were conducted by i.v. dosing of 50 mg/kg, 100 mg/kg and 150 mg/kg for 2 weeks.
Cells were plated in 96-well plates at a density of 800-5,000 cells/well, depending on the cell line, in their required growth media containing 10% fetal bovine serum. […]

[10] = tested on: PC-3 cells; assay: Cell cycle analysis (PI staining, FACS); format: cell-based, human; details: for percentage of PC-3 cells in G2M phase: 24 h; for EC50: Homo sapiens, 0.1 nM to 1 μM, read-out: EC50 of cell cycle arrest in G2M phase; for EC50 / percentage of sub-G1 phase: PC-3, 24 h
Description: Cell cycle distribution was determined by propidium iodide (PI) staining. Treated cells were washed with PBS and fixed with 70% ice-cold ethanol overnight. Fixed cells were then stained with 20 μg/mL of PI in the presence of RNase A (300 μg/mL) at 37° C. for 30 min. Cell cycle distribution was analyzed by fluorescence-activated cell sorting (FACS).

[11] = tested on: PC-12 cells; assay: In vitro NGF-dependent neurite outgrowth; format: cell-based
Description: PC-12 cells were seeded in 6-well plates coated with poly-D-lysine (BD, Franklin Lakes, N.J.) (10000 cells/well). After 6 h, cells were pretreated for 3 days by adding 100 ng/mL murine 2.5S β-NGF (Promega, Madison, Wis.) to induce neuronal differentiation and neurite outgrowth. Differentiated cells were then treated for 24 h with compounds at various concentrations in the presence of NGF (100 ng/mL). Vinblastine and docetaxel were used as positive controls. After compound treatments, approximately 100 cells in each well were randomly chosen and the numbers of cells with no neurites, short neurites (<2×cell body), and long neurites (>2×cell body) were counted (n=3).

[12] = tested on: HEK293-MRP2; assay: Growth inhibition assay (96 h); format: cell-based, human; details: HEK293-MRP2 vs HEK293-pcDNA3.1
[13] = tested on: MRP2 (over-expressed in the cells); assay: Growth inhibition assay (96 h); format: cell-based, human; details: human, HEK293 cells over-expressing MRP2 (HEK293-MRP2); HEK293-MRP2, MRP2 over-expressed, 96 h
[14] = tested on: K562; assay: Cell viability MTT assay, 96 h; format: cell-based; details: Homo sapiens
Description: (§3) Cells were seeded in 96-well plates and incubated with different concentrations of compound 13, 68 or other anticancer drugs for 96 h. Cell viability was quantitated by MTT assay. […] Table 4 is a comparison of the IC50 of compounds 13, 68 and other anticancer drugs in the K562 and doxorubicin-resistant K562/DOX cell lines.

[15] = tested on: K562/Dox; assay: Cell viability MTT assay, 96 h; format: cell-based; details: Homo sapiens, doxorubicin-resistant
Description: as §3

[16] = tested on: PC-12 cells; assay: PC-12 cell growth inhibition (SRB); format: cell-based
Source text: as §1

SMILES | IC50 [1] | resistance factor (ratio of IC50 resistant subline to parental cell line) [2] | IC50 at 96 h [3] | IC50 [4] | IC50 [5] | IC50 [6] | IC50 [9] | EC50 [10] | resistance factor (ratio of IC50 resistant subline to parental cell line) [12] | IC50 at 96 h [13] | IC50 [14] | IC50 [15] | IC70 value in PC-12 cell growth inhibition [16] | other results
COc1cc(C(=O)c2cccc(-c3cc4ccccc4[nH]3)c2)cc(OC)c1OC [Compound 68, [3-(1H-Indol-2-yl)-phenyl]-(3,4,5-trimethoxy-phenyl)-methanone] | 381 nM | (1.3) | 30.4 ± 6.4 nM | 39.2 ± 2.9 nM | 15.1 ± 1.3 nM | 17.6 ± 2.1 nM | 18 to 31 nM | 34 nM | (1.3) | 31.5 ± 8 nM | 23.6 ± 2.4 nM | 18 ± 4.4 nM | 50 nM | TGI (tumor growth inhibition) ([7]; 5 mg/kg): 47%; TGI (tumor growth inhibition) ([7]; 10 mg/kg): 74%; general toxicity and body weight loss ([8]; MES-SA and MES-SA/DX5 xenograft mice, 5 or 10 mg/kg): did not induce any general toxicity or significant body weight loss; TGI (tumor growth inhibition) ([8]; 5 mg/kg): 47%; TGI (tumor growth inhibition) ([8]; 10 mg/kg): 76%; percentage of PC-3 cells in G2M phase ([10]; 10 nM (control 19)): 24%; percentage of PC-3 cells in G2M phase ([10]; 50 nM (control 19)): 63%; percentage of PC-3 cells in G2M phase ([10]; 100 nM (control 19)): 77%; percentage of sub-G1 phase ([10]; 10 nM (control 0.2)): 0.5%; percentage of sub-G1 phase ([10]; 50 nM (control 0.2)): 0.7%; percentage of sub-G1 phase ([10]; 100 nM (control 0.2)): 1.3%; cells with neurites ([11]; PC12, 50 nM, 'a more toxic dose than IC50 value'): 60%; cells showing neurite elongation ([11]; PC12, NGF 100 ng/mL, 24 h, 50 nM (vehicle 88%)): 59%
O=C(c1cccc(-c2cc3ccccc3[nH]2)c1)c1cc2ccccc2[nH]1 [Compound 13, (1H-indol-2-yl)-[3-(1H-indol-2-yl)phenyl]methanone] |  |  |  |  |  |  | 34 to 138 nM |  |  |  | 63.6 ± 2.4 nM | 78.2 ± 2.9 nM |  | 
CC[C@]1(O)C[C@@H]2CN(CCc3c([nH]c4ccccc34)[C@@](C(=O)OC)(c3cc4c(cc3OC)N(C)[C@H]3[C@@](O)(C(=O)OC)[C@H](OC(C)=O)[C@]5(CC)C=CCN6CC[C@]43[C@@H]65)C2)C1 [Vinblastine] | […] | […] | 24.3 ± 2 nM | 1.4 ± 0.4 nM | 2.4 ± 0.2 nM | 1.6 ± 0.1 nM |  | 7 nM | […] | 18.1 ± 4 nM | 0.3 ± 0.1 nM | […] | 5 nM | resistance factor (ratio of IC50 resistant subline to parental cell line) ([2]; listed as vinblastine): […]; TGI (tumor growth inhibition) ([7]; 0.5 mg/kg): 48%; TGI (tumor growth inhibition) ([8]; 0.5 mg/kg): 24%; cells with long neurites ([11]; PC12, NGF 100 ng/mL, 24 h, 5 nM): 1.5%; cells with elongated neurites ([11]; PC12, NGF 100 ng/mL, 24 h, 5 nM (vehicle 88%)): Twenty-one; resistance factor (ratio of IC50 resistant subline to parental cell line) ([12]; listed as vinblastine): […]
